Results as given in paper PMC6934184, “Selective DNA-PKcs inhibition extends the therapeutic index of localized radiotherapy and chemotherapy” (The Journal of Clinical Investigation, 2019).

Target: T1, EPHB4 (Homo sapiens, UniProt P54760)
T1 construct: purchased Thermo Fisher Scientific (Life Technologies) SelectScreen
Assay: SelectScreen Z'LYTE
Assay type: biochemical
How it was run: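 SelectScreen broad panel; activity (Z'LYTE, Adapta) plus binding formats. ATP: Km app for CSF1R Z'LYTE; 10 for CAMK1 Adapta. Readout = % per kinase.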

T1 sequence (P54760 16-987): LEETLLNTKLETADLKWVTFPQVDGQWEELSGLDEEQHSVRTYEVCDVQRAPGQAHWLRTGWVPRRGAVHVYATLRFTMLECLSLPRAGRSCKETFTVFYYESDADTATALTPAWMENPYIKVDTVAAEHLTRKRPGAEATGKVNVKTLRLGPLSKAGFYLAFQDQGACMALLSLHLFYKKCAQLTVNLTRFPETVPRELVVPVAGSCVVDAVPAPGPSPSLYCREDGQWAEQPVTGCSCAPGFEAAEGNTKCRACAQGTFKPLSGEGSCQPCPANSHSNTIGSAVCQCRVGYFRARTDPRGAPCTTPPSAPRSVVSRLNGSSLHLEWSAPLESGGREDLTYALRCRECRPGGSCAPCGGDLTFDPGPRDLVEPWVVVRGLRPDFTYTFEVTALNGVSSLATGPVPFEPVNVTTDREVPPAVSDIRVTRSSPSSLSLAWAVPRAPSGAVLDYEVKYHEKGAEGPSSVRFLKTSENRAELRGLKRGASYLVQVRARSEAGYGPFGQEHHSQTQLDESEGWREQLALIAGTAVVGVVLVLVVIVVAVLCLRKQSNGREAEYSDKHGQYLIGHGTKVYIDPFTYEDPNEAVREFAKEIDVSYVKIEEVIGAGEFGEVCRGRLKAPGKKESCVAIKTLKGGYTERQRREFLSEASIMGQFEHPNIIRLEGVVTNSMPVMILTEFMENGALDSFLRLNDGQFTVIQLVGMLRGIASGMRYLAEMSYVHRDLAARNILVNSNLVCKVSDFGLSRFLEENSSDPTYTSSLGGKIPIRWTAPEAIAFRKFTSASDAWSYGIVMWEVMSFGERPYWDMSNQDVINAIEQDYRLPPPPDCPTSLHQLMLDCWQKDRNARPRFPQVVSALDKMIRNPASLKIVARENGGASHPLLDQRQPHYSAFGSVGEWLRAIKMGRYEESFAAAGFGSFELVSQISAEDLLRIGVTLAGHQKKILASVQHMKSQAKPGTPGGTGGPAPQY

Compound `CN(C(=O)CN1CCOCC1)c1ccc2sc3c(-c4cccc5c(=O)cc(N6CC7CCC(C6)O7)oc45)cccc3c2c1` [NU5455] has an inhibition at 1 µM of -5.3%.
